{
  "source": "patent US20210371413A1",
  "about": "“POLYCYCLIC AMIDES AS CYTOTOXIC AGENTS” (FEMTOGENIX LIMITED, priority 2018, published 2021)",
  "assay_type_in_all_cases": "cell-based",
  "key": {"E. coli K12": {"tested_on": "E. coli K12", "experiment": "MIC assay, E. coli K12", "conditions": "overnight (16-20 hour) incubation", "description": "(§1) The antimicrobial activity of a selection of compounds were evaluated in a Gram-negative, Gram-positive and multi-resistant bacteria using the standard minimum inhibitory concentration (MIC) assay for an overnight (16-20 hour) incubation period. Commercially marketed antibiotics (Table 3) were used as positive controls during the study.\n(§2) Mueller-Hinton broth (MH Broth) (Sigma-Aldrich; Millipore, cat. no. 70192) and Mueller-Hinton agar (MHA) (Sigma-Aldrich; Millipore, cat. no. 70191) were prepared as per manufacturer's instructions and sterilized by autoclaving. Approximately 20 mL of MHA was poured onto 15×100 mm petri dishes and allowed to set. Agar plates were then stored in plastic bags in an inverted position at 4° C.\n(§3) Bacterial strains were provided in the form of a glycerol stock, stored at −80° C. For the purpose of preparation of bacterial suspension, appropriate strains were removed from −80° C. storage onto dry ice and not allowed to freeze-thaw.\n(§4) Stock solutions of 16, 45 and 73 were provided in DMSO at 1.28 mg/mL concentration. From this stock solution, working solutions of the desired concentration were prepared by diluting with MHB.\n(§5) MIC assay methodology was adapted from previously published work.\n(§6) Bacterial isolate to be tested was streaked onto a nutrient-rich MH agar plate and incubated overnight at 37° C. in order to obtain single colonies.\n(§7) After overnight incubation, single colonies with the same morphological appearance were chosen from the agar plate. These were touched using a sterile loop and transferred into a tube containing 10 mL of a MH broth. They were then mixed using vortex mixer and incubated at 35-37° C. in a shaker at 200 r.p.m. overnight.\n(§8) Determination of OD600 and cfu/mL count OD600 (the optical density of a sample measured at a wavelength of 600 nm) of the overnight culture was measured. Because of the loss of linearity at OD600 values […], it was necessary to dilute the sample until the OD600 value was below 1.0. For all tested bacteria, a dilution of 1:10 was appropriate (100 μL in 900 μL broth).\n(§9) The overnight culture was then diluted 1:100 using sterile tubes and MH broth (dilution: 10^−2). Serial dilution was then performed six times until dilution of 10^−8 was reached. 100 μL of dilutions 10^−7 and 10^−8 were plated onto MH agar plates in triplicate using a sterile cell spreader and incubated overnight at 37° C.\n(§10) After overnight incubation, colonies on plates were counted and cfu per mL calculated. The following formula was applied: […]\nFor the generation of overnight cultures to be used for preparation of the bacterial suspension for MIC tests, a single colony of bacteria was selected using a sterile loop and a sterile tube with MH broth was inoculated followed by overnight incubation at […] in a shaker set to 200 r.p.m.\nAfter overnight incubation, the OD600 was measured and the overnight culture was diluted accordingly to obtain 1×10^8 cfu/mL.\nFree payload dilutions were prepared as per Table 4.\n96-well sterile microtiter plates were used for MIC assay. The plate was filled with the respective free payload or positive control antibiotic concentrations in triplicate. 100 μL of broth was pipetted in the sterility control well (SC, column 12) and 50 μL in the growth control well (GC, column 11).\n1×10^8 cfu/mL bacterial suspension was diluted 1:100 and 50 μL added to each well apart from SC. […]\n(§11) The 96-well plates were read using a SpectraMax plate reader at an absorbance of 600 nm. […]"}, "U138-MG (Glioblastoma)": {"tested_on": "U138-MG (Glioblastoma)", "experiment": "In vitro cytotoxicity, MTT assay, U138-MG", "conditions": "Homo sapiens, U138-MG, 72 h, read-out: Cytotoxicity", "description": "(§12) The in vitro cytotoxicity of a selection of compounds were evaluated in a panel of cell lines using the standard MTT assay for a 72 hour incubation period (Table 2). Free payloads produced cytotoxicities in the nanomolar range.\n(§13) Tumor cell lines were maintained in RPMI1640 medium supplemented with 10% heat-inactivated fetal bovine serum, 2 mM L-glutamine and 1 mM sodium pyruvate. 1800 cells per well were seeded in a volume of 180 μl in a 96-well flat bottom polystyrene plate. The cells were allowed to adhere overnight at 37° C. in a CO2 incubator. Ligands were initially formulated in DMSO, and stocks stored at −80° C. They were then further formulated at lox concentration in RPMI1640 medium. 20 ul of diluted samples were added into each treatment well. On each plate, blank wells with no cells, and untreated wells containing cells, were included. Plates were then cultured at 37° C. in a CO2 incubator for 72 hrs. Cytotoxicity was evaluated using a tetrazolium salt-based assay, the MTT assay. After 72 hours, the supernatant was removed from each well and 200 μl of a sterile filtered 500 μg/ml MTT solution in water added to each well. The plates were then incubated at 37° C. in a CO2 incubator for 4 hrs. The supernatant was then removed and the formazan crystals formed solubilized by adding 150 μl of DMSO to each well. The plate was then read on a plate reader at 540 nm, and percentage cell survival calculated as follows: ((mean absorbance treated wells at concentration x−mean absorbance blank wells)+(mean absorbance untreated wells at concentration x−mean absorbance blank wells))×100. Data were plotted as concentration in nM vs. % cell survival in Microsoft Excel, and IC50 values (concentration where cell survival is reduced by a half) were determined from the graph."}, "[1]": {"tested_on": "Klebsiella pneumoniae KP4631", "experiment": "MIC assay, Klebsiella pneumoniae KP4631", "conditions": "Klebsiella pneumoniae, KP4631", "description": "as §1, §2, §3, §4, §5, §6, §7, §8, §9, §10\nAfter overnight incubation, the OD600 was measured and the overnight culture was diluted accordingly to obtain 1×10^8 cfu/mL. […]\nas §11"}, "REH (ALL)": {"tested_on": "REH (ALL)", "experiment": "In vitro cytotoxicity, MTT assay, REH", "conditions": "72 h, read-out: Cytotoxicity", "description": "as §12, §13"}, "SW620": {"tested_on": "SW620", "experiment": "In vitro cell-killing, MTT assay, SW620", "conditions": "Homo sapiens, SW-620, 72 h, read-out: In vitro cell-killing (IC50), Cytotoxicity (72 hours)", "description": "as §13, with “The plates were then incubated at 37° C. in a CO2 incubator for 4 hrs. The supernatant was then removed and the formazan crystals formed solubilized by adding 150 μl of DMSO to each well.” left out"}, "SW48": {"tested_on": "SW48", "experiment": "In vitro cell-killing, MTT assay, SW48", "conditions": "Homo sapiens, SW48, 72 h, read-out: In vitro cell-killing (IC50), Cytotoxicity (72 hours)", "description": "as §13, with “The plates were then incubated at 37° C. in a CO2 incubator for 4 hrs. The supernatant was then removed and the formazan crystals formed solubilized by adding 150 μl of DMSO to each well.” left out"}},
  "data": [
    {"smiles": "COc1cc2c(cc1OCCCC(=O)Nc1cc(C(=O)Nc3ccc(-c4cc(C(=O)Nc5ccc(N)cc5)n(C)c4)cc3)n(C)c1)NC[C@@H]1CCCCN1C2=O", "note": "[Compound 16, (S)—N-(4-Aminophenyl)-4-(4-(4-(4-((2-methoxy-12-oxo-5,6,6a,7,8,9,10,12-octahydrobenzo[e]pyrido[1,2-a][1,4]diazepin-3-yl)oxy)butanamido)-1-methyl-1H-pyrrole-2-carboxamido)phenyl)-1-methyl-1H-pyrrole-2-carboxamide]", "values": [
      {"measurement": "MIC", "setting": "E. coli K12; E. coli K12 (Gram-negative)", "result": "2 to 4", "unit": "mg/L"},
      {"measurement": "MIC", "setting": "E. coli K12; Escherichia coli, K12, E. coli K12 (Gram-negative)", "result": 2, "unit": "mg/L"},
      {"measurement": "IC50", "setting": "U138-MG (Glioblastoma)", "result": 0.184, "unit": "µM"},
      {"measurement": "MIC", "setting": "[1]", "result": "> 8", "unit": "mg/L"},
      {"measurement": "IC50", "setting": "REH (ALL)", "result": 0.146, "unit": "µM"},
      {"measurement": "IC50", "setting": "SW620", "result": 0.079, "unit": "µM"},
      {"measurement": "IC50", "setting": "SW48", "result": 0.077, "unit": "µM"}
    ]}
  ]
}
